Measurements published in PubChem BioAssay (NCI).
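All cell lines were grown in 96-well plates and treated with compound for 48 hours. TGI is the concentration that stops growth completely.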

Key:
Assay in all cases: NCI-60 cell line screen, 48 h
M19-MEL melanoma = test system: M19-MEL melanoma
NCI-H460 lung = test system: NCI-H460 lung
NCI-H23 lung = test system: NCI-H23 lung
MALME-3M melanoma = test system: MALME-3M melanoma
SF-268 CNS = test system: SF-268 CNS
SW-620 colon = test system: SW-620 colon
RPMI-8226 leukemia = test system: RPMI-8226 leukemia
M14 melanoma = test system: M14 melanoma
SF-295 CNS = test system: SF-295 CNS
DLD-1 colon = test system: DLD-1 colon
UACC-62 melanoma = test system: UACC-62 melanoma
EKVX NSCLC = test system: EKVX NSCLC
SK-OV-3 ovarian = test system: SK-OV-3 ovarian
HCC-2998 colon = test system: HCC-2998 colon
HOP-18 NSCLC = test system: HOP-18 NSCLC
HT29 colon = test system: HT29 colon
UO-31 renal = test system: UO-31 renal
SR leukemia = test system: SR leukemia
SF-539 CNS = test system: SF-539 CNS
IGROV1 ovarian = test system: IGROV1 ovarian
KM12 colon = test system: KM12 colon
HL-60(TB) leukemia = test system: HL-60(TB) leukemia
LXFL 529 NSCLC = test system: LXFL 529 NSCLC
SNB-78 CNS = test system: SNB-78 CNS
SNB-75 CNS = test system: SNB-75 CNS
786-0 renal = test system: 786-0 renal
LOX IMVI melanoma = test system: LOX IMVI melanoma
NCI-H226 lung = test system: NCI-H226 lung
OVCAR-3 ovarian = test system: OVCAR-3 ovarian
SK-MEL-28 melanoma = test system: SK-MEL-28 melanoma
SK-MEL-5 melanoma = test system: SK-MEL-5 melanoma
CAKI-1 renal = test system: CAKI-1 renal
A549 NSCLC = test system: A549 NSCLC
COLO 205 colon = test system: COLO 205 colon
HOP-92 NSCLC = test system: HOP-92 NSCLC
RXF 393 renal = test system: RXF 393 renal
U251 CNS = test system: U251 CNS
K-562 leukemia = test system: K-562 leukemia
SN12C renal = test system: SN12C renal
UACC-257 melanoma = test system: UACC-257 melanoma
HOP-62 NSCLC = test system: HOP-62 NSCLC
SNB-19 CNS = test system: SNB-19 CNS
TK-10 renal = test system: TK-10 renal
OVCAR-4 ovarian = test system: OVCAR-4 ovarian
HCT-116 colon = test system: HCT-116 colon
NCI-H522 lung = test system: NCI-H522 lung
CCRF-CEM leukemia = test system: CCRF-CEM leukemia
OVCAR-8 ovarian = test system: OVCAR-8 ovarian
MOLT-4 leukemia = test system: MOLT-4 leukemia
KM20L2 colon = test system: KM20L2 colon
A498 renal = test system: A498 renal
OVCAR-5 ovarian = test system: OVCAR-5 ovarian
MDA-N = test system: MDA-N
T-47D breast = test system: T-47D breast
HS 578T breast = test system: HS 578T breast
PC-3 prostate = test system: PC-3 prostate
HCT-15 colon = test system: HCT-15 colon
MDA-MB-231 breast = test system: MDA-MB-231 breast
ACHN renal = test system: ACHN renal
MDA-MB-435 = test system: MDA-MB-435
MCF7 breast = test system: MCF7 breast
NCI/ADR-RES ovarian = test system: NCI/ADR-RES ovarian
BT-549 breast = test system: BT-549 breast
DU-145 prostate = test system: DU-145 prostate
DMS 114 small cell lung = test system: DMS 114 small cell lung
SK-MEL-2 melanoma = test system: SK-MEL-2 melanoma
DMS 273 small cell lung = test system: DMS 273 small cell lung

Measured: TGI

CN1N=CSC12C(=O)N(c1ccc(Cl)cc1)C(=O)N2c1ccc(Cl)cc1 (stereo not given)
33.5 µM: UACC-257 melanoma
53.6 µM: U251 CNS
22.3 µM: K-562 leukemia
3.38 µM: COLO 205 colon
8.66 µM: NCI-H226 lung
7.21 µM: RPMI-8226 leukemia
69.5 µM: SNB-19 CNS
8.08 µM: UO-31 renal
5.09 µM: HL-60(TB) leukemia
16.5 µM: SNB-75 CNS
9.67 µM: A498 renal
20.4 µM: NCI-H460 lung
13.3 µM: HCT-116 colon
30.3 µM: KM12 colon
15.5 µM: HOP-62 NSCLC
8.92 µM: HOP-92 NSCLC
32 µM: SK-OV-3 ovarian | HT29 colon
29.1 µM: UACC-62 melanoma
81.1 µM: TK-10 renal
9.16 µM: SF-295 CNS
5.14 µM: NCI-H23 lung
12.3 µM: MOLT-4 leukemia
5.73 µM: NCI-H522 lung
37.7 µM: HCC-2998 colon
36.1 µM: RXF 393 renal
15.1 µM: SK-MEL-5 melanoma
4.54 µM: OVCAR-3 ovarian
69.7 µM: HOP-18 NSCLC
8.91 µM: LOX IMVI melanoma
not listed: OVCAR-5 ovarian | MDA-N | T-47D breast | HS 578T breast | PC-3 prostate | HCT-15 colon | MDA-MB-231 breast | ACHN renal | MDA-MB-435 | MCF7 breast | NCI/ADR-RES ovarian | BT-549 breast | DU-145 prostate | DMS 114 small cell lung | SK-MEL-2 melanoma | DMS 273 small cell lung
> 100 µM: all other assays above

O=c1c2cc(-c3ccccc3)sc2nc2n1N=C(c1ccccc1)CS2
38 µM: 786-0 renal
61.4 µM: OVCAR-4 ovarian
89.1 µM: SF-539 CNS | SNB-75 CNS
44.2 µM: SF-295 CNS
26.3 µM: SK-OV-3 ovarian
91.5 µM: UACC-257 melanoma
71.9 µM: A498 renal
79.3 µM: SK-MEL-5 melanoma
34.6 µM: HOP-92 NSCLC
31.7 µM: UACC-62 melanoma
34.3 µM: CAKI-1 renal
49.4 µM: HS 578T breast
57.5 µM: NCI/ADR-RES ovarian
23 µM: HOP-62 NSCLC
96.2 µM: MCF7 breast
32.5 µM: ACHN renal
46.7 µM: BT-549 breast
48.4 µM: U251 CNS
49.1 µM: OVCAR-3 ovarian
not listed: M19-MEL melanoma | M14 melanoma | DLD-1 colon | HOP-18 NSCLC | HT29 colon | IGROV1 ovarian | LXFL 529 NSCLC | SNB-78 CNS | RXF 393 renal | SNB-19 CNS | KM20L2 colon | DMS 114 small cell lung | SK-MEL-2 melanoma | DMS 273 small cell lung
> 100 µM: all other assays above

CCNC(C)Cc1ccccc1 (stereo not given)
not listed: M19-MEL melanoma | MOLT-4 leukemia | MDA-N | T-47D breast | HS 578T breast | PC-3 prostate | MDA-MB-231 breast | MDA-MB-435 | MCF7 breast | NCI/ADR-RES ovarian | BT-549 breast | DU-145 prostate
> 100 µM: all other assays above

CN(C)C(Cc1cnc[nH]1)C(=O)N1CCCC1C(N)=O (stereo not given)
98 µM: A498 renal
not listed: M19-MEL melanoma | DLD-1 colon | HOP-18 NSCLC | SF-539 CNS | LXFL 529 NSCLC | SNB-78 CNS | UACC-257 melanoma | KM20L2 colon | DMS 114 small cell lung | SK-MEL-2 melanoma | DMS 273 small cell lung
> 100 µM: all other assays above
